Values of other authors as cited in patent US7056947B2, “Aza-peptide epoxides” (Georgia Tech Research Corp., priority 2002, dated 2006).

What was measured:
[1] = tested on: ficin; conditions: E-64; cited from earlier work
[2] = target: fruit bromelain (Ananas comosus, UniProt O23791); conditions: E-64; cited from earlier work
[3] = target: stem bromelain (Ananas comosus, UniProt P14518); conditions: E-64; cited from earlier work
[4] = target: T1, papain (Carica papaya, UniProt P00784); conditions: E-64; cited from earlier work
T1 sequence (P00784 134-345): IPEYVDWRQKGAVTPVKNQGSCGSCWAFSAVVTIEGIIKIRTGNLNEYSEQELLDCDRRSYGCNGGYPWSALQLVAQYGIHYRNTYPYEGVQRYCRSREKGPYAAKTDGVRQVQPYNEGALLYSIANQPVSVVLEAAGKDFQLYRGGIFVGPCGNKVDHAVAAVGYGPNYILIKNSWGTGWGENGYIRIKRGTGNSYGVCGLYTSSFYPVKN

[5] = target: cathepsin B (Homo sapiens, UniProt P07858); conditions: E-64; cited from earlier work
[6] = target: cathepsin H (Homo sapiens, UniProt P09668); conditions: E-64; cited from earlier work
[7] = target: cathepsin L (Homo sapiens, UniProt P07711); conditions: E-64; cited from earlier work
[8] = target: cathepsin K (Homo sapiens, UniProt P43235); conditions: E-64; cited from earlier work
[9] = target: cathepsin S (Homo sapiens, UniProt P25774); conditions: E-64; cited from earlier work
[10] = target: cathepsin X (Homo sapiens, UniProt Q9UBR2); conditions: E-64; cited from earlier work
[11] = tested on: cathepsin O; conditions: E-64; cited from earlier work
[12] = target: cathepsin F (Homo sapiens, UniProt Q9UBX1); conditions: E-64, rate not given; cited from earlier work
[13] = target: cathepsin V (Homo sapiens, UniProt O60911); conditions: E-64; cited from earlier work
[14] = tested on: cathepsin J; conditions: E-64, rate not given; cited from earlier work
[15] = target: DPPI (Homo sapiens, UniProt P53634); conditions: E-64; cited from earlier work
[16] = target: streptococcal proteinase (Streptococcus pyogenes, UniProt P0C0J0); conditions: cited from earlier work
[17] = target: papaya proteinase IV (Carica papaya, UniProt P05994); conditions: E-64; cited from earlier work
[18] = target: calpain II (Homo sapiens, UniProt P17655); conditions: E-64; cited from earlier work
[19] = target: bleomycin hydrolase (Homo sapiens, UniProt Q13867); conditions: E-64; cited from earlier work
[20] = target: cruzain (Trypanosoma cruzi, UniProt P25779); conditions: E-64; cited from earlier work
[21] = target: vignain (Vigna mungo, UniProt P12412); conditions: E-64; cited from earlier work
[22] = target: T2, trypsin (Bos taurus, UniProt P00760); conditions: E-64; cited from earlier work
T2 construct: gene PRSS1

[23] = target: α-chymotrypsin (Bos taurus, UniProt P00766); conditions: E-64; cited from earlier work
[24] = tested on: kallikrein; conditions: E-64; cited from earlier work
[25] = target: pepsin (Homo sapiens, UniProt P0DJD8); conditions: E-64; cited from earlier work
[26] = target: plasmin (Homo sapiens, UniProt P00747); conditions: E-64; cited from earlier work
[27] = tested on: elastase; conditions: E-64; cited from earlier work
[28] = tested on: mold acid protease; conditions: E-64; cited from earlier work
[29] = tested on: LDH; conditions: E-64; cited from earlier work
[30] = target: thermolysin (Bacillus thermoproteolyticus, UniProt P00800); conditions: E-64; cited from earlier work
[31] = tested on: collagenase; conditions: E-64; cited from earlier work
[32] = target: clostripain (Hathewaya histolytica, UniProt P09870); conditions: E-64; cited from earlier work
[33] = target: caspase 1 (ICE) (Homo sapiens, UniProt P29466); conditions: E-64; cited from earlier work
[34] = target: legumain (Homo sapiens, UniProt Q99538); conditions: E-64; cited from earlier work
Chain of legumain (Q99538 18-323, species assumed): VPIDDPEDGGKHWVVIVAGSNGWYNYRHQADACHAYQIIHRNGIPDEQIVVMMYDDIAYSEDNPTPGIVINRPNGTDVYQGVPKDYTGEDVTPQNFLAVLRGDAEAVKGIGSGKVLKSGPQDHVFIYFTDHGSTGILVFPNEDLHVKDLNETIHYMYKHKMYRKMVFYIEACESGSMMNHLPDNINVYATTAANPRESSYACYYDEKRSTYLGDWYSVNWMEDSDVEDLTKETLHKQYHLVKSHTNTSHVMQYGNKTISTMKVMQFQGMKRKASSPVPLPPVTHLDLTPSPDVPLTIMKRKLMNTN

Chain of clostripain (P09870 51-526): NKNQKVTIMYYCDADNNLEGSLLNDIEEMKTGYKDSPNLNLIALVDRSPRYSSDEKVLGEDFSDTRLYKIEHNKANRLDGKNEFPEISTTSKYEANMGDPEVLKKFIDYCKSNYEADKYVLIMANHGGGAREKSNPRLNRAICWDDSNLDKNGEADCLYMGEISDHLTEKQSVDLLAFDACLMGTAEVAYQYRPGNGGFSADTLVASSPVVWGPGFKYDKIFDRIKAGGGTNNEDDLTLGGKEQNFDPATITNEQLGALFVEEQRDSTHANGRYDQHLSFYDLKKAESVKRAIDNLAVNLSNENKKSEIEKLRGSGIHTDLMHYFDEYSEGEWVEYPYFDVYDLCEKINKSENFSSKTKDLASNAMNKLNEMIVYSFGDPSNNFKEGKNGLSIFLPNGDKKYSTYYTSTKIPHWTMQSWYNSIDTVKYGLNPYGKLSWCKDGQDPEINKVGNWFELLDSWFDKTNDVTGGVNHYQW
Chain of cathepsin X (Q9UBR2 62-303): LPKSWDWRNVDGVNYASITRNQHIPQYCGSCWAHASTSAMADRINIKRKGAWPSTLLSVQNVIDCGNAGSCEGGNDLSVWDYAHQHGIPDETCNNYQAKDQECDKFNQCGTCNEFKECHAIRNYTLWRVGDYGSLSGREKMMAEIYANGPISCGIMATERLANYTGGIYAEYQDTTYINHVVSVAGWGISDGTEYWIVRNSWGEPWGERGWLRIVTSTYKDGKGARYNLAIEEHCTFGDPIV
Chain of fruit bromelain (O23791 122-351): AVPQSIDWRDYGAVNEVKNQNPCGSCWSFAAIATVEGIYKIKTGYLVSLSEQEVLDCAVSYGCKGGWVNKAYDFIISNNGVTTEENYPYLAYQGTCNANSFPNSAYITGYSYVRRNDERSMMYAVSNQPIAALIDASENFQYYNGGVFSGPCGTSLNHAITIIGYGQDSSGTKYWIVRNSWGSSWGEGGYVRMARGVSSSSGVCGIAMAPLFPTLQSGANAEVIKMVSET
Chain of cathepsin H (P09668 98-335, species assumed): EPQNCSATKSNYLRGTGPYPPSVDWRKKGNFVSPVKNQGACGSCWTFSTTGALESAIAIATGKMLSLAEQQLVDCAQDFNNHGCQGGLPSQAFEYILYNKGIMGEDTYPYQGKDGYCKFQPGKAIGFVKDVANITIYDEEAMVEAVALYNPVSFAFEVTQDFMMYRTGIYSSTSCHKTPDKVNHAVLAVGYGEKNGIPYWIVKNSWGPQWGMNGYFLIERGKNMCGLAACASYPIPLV
Chain of papaya proteinase IV (P05994 133-348): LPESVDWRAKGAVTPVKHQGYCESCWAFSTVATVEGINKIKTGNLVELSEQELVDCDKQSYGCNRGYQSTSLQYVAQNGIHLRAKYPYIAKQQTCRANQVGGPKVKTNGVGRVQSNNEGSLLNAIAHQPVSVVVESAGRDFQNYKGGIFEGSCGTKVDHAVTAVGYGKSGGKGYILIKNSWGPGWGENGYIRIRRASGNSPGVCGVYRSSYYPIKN
Chain of streptococcal proteinase (P0C0J0 146-398 limits assumed): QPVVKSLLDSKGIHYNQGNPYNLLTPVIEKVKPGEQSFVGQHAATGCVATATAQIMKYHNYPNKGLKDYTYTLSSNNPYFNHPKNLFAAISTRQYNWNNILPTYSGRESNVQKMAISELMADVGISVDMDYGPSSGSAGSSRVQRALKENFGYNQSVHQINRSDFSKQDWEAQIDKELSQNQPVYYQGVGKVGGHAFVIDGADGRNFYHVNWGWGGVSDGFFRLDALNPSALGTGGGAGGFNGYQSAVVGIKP
Chain of cathepsin V (O60911 114-334, species assumed): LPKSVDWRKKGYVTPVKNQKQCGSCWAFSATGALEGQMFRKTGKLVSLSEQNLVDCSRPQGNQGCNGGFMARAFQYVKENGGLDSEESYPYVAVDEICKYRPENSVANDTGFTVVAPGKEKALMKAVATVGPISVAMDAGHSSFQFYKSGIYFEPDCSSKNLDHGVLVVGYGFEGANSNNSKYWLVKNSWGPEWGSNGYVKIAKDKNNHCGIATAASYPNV
Chain of cathepsin S (P25774 115-331, species assumed): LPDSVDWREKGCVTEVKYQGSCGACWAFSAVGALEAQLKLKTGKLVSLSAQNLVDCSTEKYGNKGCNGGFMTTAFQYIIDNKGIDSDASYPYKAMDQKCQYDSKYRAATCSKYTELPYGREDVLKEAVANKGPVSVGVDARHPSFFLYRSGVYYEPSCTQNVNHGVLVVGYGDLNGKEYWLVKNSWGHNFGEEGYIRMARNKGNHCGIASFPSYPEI
Chain of cathepsin K (P43235 115-329, species assumed): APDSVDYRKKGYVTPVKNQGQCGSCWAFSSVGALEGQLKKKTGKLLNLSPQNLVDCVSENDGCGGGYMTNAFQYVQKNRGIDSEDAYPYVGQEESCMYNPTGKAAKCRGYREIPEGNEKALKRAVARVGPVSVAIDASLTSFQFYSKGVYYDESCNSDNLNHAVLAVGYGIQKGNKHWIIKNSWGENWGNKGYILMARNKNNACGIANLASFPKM
Chain of pepsin (P0DJD8 63-388): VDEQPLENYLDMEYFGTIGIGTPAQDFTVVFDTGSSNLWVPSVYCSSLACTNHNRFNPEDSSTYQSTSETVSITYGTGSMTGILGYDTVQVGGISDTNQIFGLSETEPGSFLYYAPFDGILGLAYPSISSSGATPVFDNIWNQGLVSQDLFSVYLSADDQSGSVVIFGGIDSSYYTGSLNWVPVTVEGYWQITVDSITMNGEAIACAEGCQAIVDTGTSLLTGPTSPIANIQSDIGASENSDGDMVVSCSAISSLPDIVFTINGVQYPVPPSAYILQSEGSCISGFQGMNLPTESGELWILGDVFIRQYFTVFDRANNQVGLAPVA
Chain of thermolysin (P00800 233-548): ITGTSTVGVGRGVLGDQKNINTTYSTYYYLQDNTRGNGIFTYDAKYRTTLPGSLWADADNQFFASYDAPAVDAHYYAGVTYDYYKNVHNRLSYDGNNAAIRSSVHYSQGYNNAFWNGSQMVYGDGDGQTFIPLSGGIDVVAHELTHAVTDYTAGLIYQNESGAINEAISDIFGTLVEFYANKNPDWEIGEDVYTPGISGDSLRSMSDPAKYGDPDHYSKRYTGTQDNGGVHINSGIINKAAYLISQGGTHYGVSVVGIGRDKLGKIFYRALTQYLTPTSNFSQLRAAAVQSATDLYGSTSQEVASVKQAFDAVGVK
Chain of plasmin (P00747 97-810, species assumed): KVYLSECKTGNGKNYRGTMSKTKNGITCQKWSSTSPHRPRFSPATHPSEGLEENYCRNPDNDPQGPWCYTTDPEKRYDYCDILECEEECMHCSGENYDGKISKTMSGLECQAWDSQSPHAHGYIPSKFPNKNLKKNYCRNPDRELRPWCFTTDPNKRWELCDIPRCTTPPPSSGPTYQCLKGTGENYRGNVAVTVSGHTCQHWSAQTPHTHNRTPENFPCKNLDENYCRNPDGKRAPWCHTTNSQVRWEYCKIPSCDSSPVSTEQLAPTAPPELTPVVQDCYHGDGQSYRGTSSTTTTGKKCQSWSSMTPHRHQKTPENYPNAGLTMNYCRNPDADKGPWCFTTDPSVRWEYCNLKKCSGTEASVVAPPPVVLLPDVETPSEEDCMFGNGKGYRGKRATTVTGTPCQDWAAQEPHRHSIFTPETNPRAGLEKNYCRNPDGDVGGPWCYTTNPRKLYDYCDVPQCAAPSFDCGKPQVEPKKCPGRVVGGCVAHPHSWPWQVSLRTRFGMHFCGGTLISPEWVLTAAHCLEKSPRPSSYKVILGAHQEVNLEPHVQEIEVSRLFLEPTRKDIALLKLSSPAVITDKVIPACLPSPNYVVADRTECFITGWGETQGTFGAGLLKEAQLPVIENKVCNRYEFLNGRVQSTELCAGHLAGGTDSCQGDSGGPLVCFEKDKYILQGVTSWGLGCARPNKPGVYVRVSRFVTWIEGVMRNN
Chain of vignain (P12412 127-352): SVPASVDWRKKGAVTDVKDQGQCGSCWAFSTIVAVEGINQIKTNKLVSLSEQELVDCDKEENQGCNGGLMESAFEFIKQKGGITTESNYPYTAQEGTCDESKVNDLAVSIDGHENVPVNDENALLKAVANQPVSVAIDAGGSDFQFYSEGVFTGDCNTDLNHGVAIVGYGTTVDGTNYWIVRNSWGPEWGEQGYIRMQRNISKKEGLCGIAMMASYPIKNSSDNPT
Chain of cathepsin L (P07711 114-333, species assumed): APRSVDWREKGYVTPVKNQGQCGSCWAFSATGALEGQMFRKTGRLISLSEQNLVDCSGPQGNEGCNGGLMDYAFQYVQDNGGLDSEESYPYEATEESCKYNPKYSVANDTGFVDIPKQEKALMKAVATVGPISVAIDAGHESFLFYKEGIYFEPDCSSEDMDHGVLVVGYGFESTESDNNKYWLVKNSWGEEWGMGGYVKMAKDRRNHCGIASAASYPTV
Chain of caspase 1 (ICE) (P29466 120-404, species assumed): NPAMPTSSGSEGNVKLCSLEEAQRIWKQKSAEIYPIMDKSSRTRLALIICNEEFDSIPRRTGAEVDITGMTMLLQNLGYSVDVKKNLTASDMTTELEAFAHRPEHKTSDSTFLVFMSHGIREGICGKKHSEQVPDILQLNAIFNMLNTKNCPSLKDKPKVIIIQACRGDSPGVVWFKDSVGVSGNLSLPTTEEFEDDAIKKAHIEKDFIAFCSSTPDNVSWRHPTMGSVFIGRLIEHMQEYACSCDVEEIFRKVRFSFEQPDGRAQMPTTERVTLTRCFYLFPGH

Structure (SMILES): CC(C)C[C@H](NC(=O)[C@H]1O[C@@H]1C(=O)O)C(=O)NCCCCNC(=N)N [E-64, N-(N-(L-3-trans-carboxyoxiran-2-carbonyl)-L-leucyl)agmatine]
- ID50, ficin [1]: 0.084 (ID50)
- ID50, fruit bromelain [2]: 0.110 (ID50)
- ID50, stem bromelain [3]: 0.025 (ID50)
- ID50, papain [4]: 0.104 (ID50)
- rate, cathepsin B [5]: 89,400 M^−1 s^−1
- rate, cathepsin H [6]: 4,000 M^−1 s^−1
- rate, cathepsin L [7]: 96,250 M^−1 s^−1
- Ki [8]: 1.8 nM
- rate, cathepsin S [9]: 99,000 M^−1 s^−1
- rate, cathepsin X [10]: 775 M⁻¹ s⁻¹
- IC50 [11]: > 100000 nM
- enzymes inactivated: cathepsin F [12]: cathepsin F
- IC50 [13]: > 100 nM
- enzymes inactivated: cathepsin J [14]: cathepsin J
- rate, DPPI [15]: 100 M⁻¹ s⁻¹
- rate, streptococcal proteinase [16]: 624 M⁻¹ s⁻¹
- rate, papaya proteinase IV [17]: 58,000 M^−1 s^−1
- rate, calpain II [18]: 7,500 M^−1 s^−1
- IC50 [19]: > 160000 nM
- rate, cruzain [20]: 70,600 M^−1 s^−1
- rate, vignain [21]: 32,500 M^−1 s^−1
- enzymes not inactivated: trypsin [22]: trypsin
- enzymes not inactivated: α-chymotrypsin [23]: α-chymotrypsin
- enzymes not inactivated: kallikrein [24]: kallikrein
- enzymes not inactivated: pepsin [25]: pepsin
- enzymes not inactivated: plasmin [26]: plasmin
- enzymes not inactivated: elastase [27]: elastase
- enzymes not inactivated: mold acid protease [28]: mold acid protease
- enzymes not inactivated: LDH [29]: LDH
- enzymes not inactivated: thermolysin [30]: thermolysin
- enzymes not inactivated: collagenase [31]: collagenase
- enzymes not inactivated: clostripain [32]: clostripain
- enzymes not inactivated: caspase 1 (ICE) [33]: caspase 1 (ICE)
- enzymes not inactivated: legumain [34]: legumain
